# Measurements: US20090298912A1, “Arginase II: A Target treatment of aging heart and heart failure” (The Johns Hopkins University, priority 2005, published 2009)
# “Also recorded” adds a separate entry of the source.
# Columns and labels:
# arginase [1] = target: T1, arginase (Rattus norvegicus, UniProt O08701); experiment: Arginase activity in rat heart and isolated myocyte homogenates; type: biochemical; settings: isolated rat myocytes, dose-dependent
# T1 construct: Arginase activity is present in both whole rat heart (n=4) and isolated rat myocytes (n=3); from tissue; host or cells: Wistar rat heart tissue and freshly isolated rat cardiac myocytes (homogenates)
# T1 sequence (O08701 23-354): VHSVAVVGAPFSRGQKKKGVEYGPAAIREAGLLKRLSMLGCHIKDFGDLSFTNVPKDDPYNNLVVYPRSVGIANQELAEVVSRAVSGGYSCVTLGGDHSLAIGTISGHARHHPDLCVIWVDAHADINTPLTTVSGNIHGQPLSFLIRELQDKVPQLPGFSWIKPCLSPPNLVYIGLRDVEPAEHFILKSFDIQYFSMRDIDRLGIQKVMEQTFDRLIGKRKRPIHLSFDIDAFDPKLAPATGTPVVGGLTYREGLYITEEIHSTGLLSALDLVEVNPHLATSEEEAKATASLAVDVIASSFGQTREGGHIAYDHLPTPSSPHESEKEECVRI
# Method: (§1) Arginase Activity: Rat hearts and myocytes were homogenized in lysis buffer (50 mM Tris-HCl, pH 7.5, 0.1 mM EDTA and protease inhibitor) and centrifuged for 30 min at 14,000 g at 4° C. for an arginase activity assay as described previously (20).
# arginase [2] = experiment: as above; type: biochemical; settings: whole rat heart homogenate, dose-dependent
# Method: as §1
# NO production = NO production (nitrite levels) in heart and isolated cardiac myocyte lysates; type: biochemical, rat; settings: for NO production: BEC 10 μmol/L, n=6; for Effect on myocyte NO production: isolated myocytes, exogenous L-arginine 0.1 mM alone
# Method: NOS Activity and NO Production: NO production was evaluated by measuring nitrite levels (Calbiochem) following pre-incubation of heart and myocytes with BEC (10 μmol/L) in PBS (pH 7.4) as previously described (52).
# [3] = tested on: isolated rat cardiac myocytes; experiment: Contractility (sarcomere shortening) in isolated rat myocytes; type: cell-based; settings: for Emax, increase in myocardial contractility (sarcomere shortening) / EC50: dose response; for EC50: log value, read-out: LogEC50, increase in myocardial contractility (sarcomere shortening) (converted); for Sarcomere shortening, agent alone: agent alone (L-arginine 0.1 mM), n=3, species of myocytes not stated; for Effect on the BEC-induced increase in contractility: L-NAME 10^−4 M (0.1 mM), SMTC 10 μM
# Method: (§2) Measurement of Contractility in Isolated Rat and Mouse Myocytes: Both rat and mouse myocytes were isolated by enzymatic digestion as previously described (2, 3). Myocytes were transferred to a lucite chamber on the stage of an inverted microscope (Nikon TE 200), continuously superfused with Tyrodes containing 1.0 mM Ca^2+, and stimulated at 1 Hz. Sarcomere length was recorded with an IonOptix intensified charged coupled device camera (iCCD) camera. Change in average sarcomere length was determined by fast Fourier transform of the Z-line density trace to the frequency domain (IonOptix, Milton, Mass.) as previously described (2, 3).
# (§3) Data Analysis and Statistics: All data are presented as mean±SEM, with N being indicated for each experimental protocol. For dose responses, data was fitted using the software program Prism 4 (Graphpad) and Emax and EC50 calculated. Statistical analysis was performed using one-way analysis of variance with post test or unpaired Student t test where appropriate.
# isolated mouse myocytes = experiment: Contractility (sarcomere shortening) in isolated mouse myocytes (WT, NOS1 and NOS3 deficient); type: cell-based
# Excerpt: Animals: Mice (8 to 10 weeks old) homozygous for targeted disruption of the NOS1 gene (NOS1^−/−, n=3), the NOS3 gene (NOS3^−/−, n=3), and wild-type control mice (WT, C57BL6J, n=3) were purchased from Jackson Laboratories. All rats (Wistar, 11 to 14 weeks old) were purchased from Harlan Laboratory. All protocols conformed to the current National Institutes of Health and American Physiological Society Guidelines for the Use and Care of Laboratory Animals.
# as §2, §3
smiles,measurement,setting,value
"N[C@@H](CSCCB(O)O)C(=O)O [BEC, S-(2-boronoethyl)-L-cysteine]",Arginase activity in presence of inhibitor,arginase [1],inhabitable; also recorded: inhibited
same,Arginase activity in presence of inhibitor,arginase [2],inhibitable; also recorded: inhibited
same,NO production,NO production; heart lysates,16.7±1 μmol/mg protein
same,NO production,NO production; isolated myocyte lysates,11.1±2.2 μmol/mg protein
same,"Contractility, fold change in sarcomere shortening","[3]; isolated rat myocytes, BEC 10^−5M alone (FIG. 4a)",2.1±0.14 fold change
same,"Contractility (sarcomere shortening), fold change","[3]; isolated rat myocytes, BEC alone, NOS1 inhibitor experiment (FIG. 5a)",2.06±0.14
same,"Emax, increase in myocardial contractility (sarcomere shortening)",[3]; isolated rat myocytes,1.8±0.3 fold increase
same,EC50,[3]; isolated rat myocytes,1580 nM
same,Effect on sarcomere shortening,"[3]; isolated rat myocytes, increasing doses",dose dependently increased
same,"Emax, basal sarcomere shortening",isolated mouse myocytes; myocytes from NOS1 deficient mice,1.11±0.08
same,Effect on contractility,"isolated mouse myocytes; myocytes from NOS1 deficient mice, increasing doses",no effect
same,"Emax, basal sarcomere shortening",isolated mouse myocytes; myocytes from NOS3 deficient mice,1.81±0.17
same,Effect on sarcomere shortening,"isolated mouse myocytes; myocytes from NOS3 deficient mice, increasing doses",dose dependently increased
same,Effect on sarcomere shortening,"isolated mouse myocytes; myocytes from WT mice, increasing doses",dose dependently increased
same,"Emax, basal sarcomere shortening",isolated mouse myocytes; myocytes from wild type mice,1.97±0.24
COC(=O)[C@@H](N)CCCNC(=N)N[N+](=O)[O-] [L-NAME],"Sarcomere shortening, agent alone",[3],0.76±0.06 fold change
same,Effect on the BEC-induced increase in contractility,[3]; isolated rat myocytes,completely abolished; also recorded: completely inhibited
N=C(N)NCCC[C@H](N)C(=O)O [L-arginine],Effect on myocyte NO production,NO production,did not effect
same,Effect on myocyte NO production,NO production; listed as L-Arginine,no effect
same,"Sarcomere shortening, agent alone",[3],1.1±0.05 fold change
"N=C(NO)NCC[C@H](N)C(=O)O [Nor-NOHA, N-hydroxy-nor-L-arginine]",Increase in contractility (sarcomere shortening),"[3]; isolated rat myocytes, Nor-NOHA dose response (FIG. 4b legend)",1.9±0.45 fold increase
same,"Emax, increase in myocardial contractility (sarcomere shortening)",[3]; isolated rat myocytes,1.98±0.23 fold increase
same,EC50,[3]; isolated rat myocytes,1580 nM
CSC(N)=NCCC[C@H](N)C(=O)O [SMTC],Effect on the BEC-induced increase in contractility,[3]; isolated rat myocytes,abolished; also recorded: inhibited
